Legend:
[1] = test system: Western flower thrips (Frankliniella occidentalis); test: Test Example 2: Western flower thrips larvae on treated cucumber leaf; assay type: in vivo; conditions: 500 ppm, 20 ml/cup on cucumber; thirty larvae set free on cut first true leaf; after seven days
Method: A formulation of each test compound obtained according to Formulation Example 5 was diluted with water so that the active ingredient concentration came to 500 ppm to prepare a test spray liquid. The seeds of cucumber were planted in a polyethylene cup, and grown until their first foliage leaves developed, and then a test spray liquid was applied at a ratio of 20 ml/cup to the plant. After the liquid sprayed to the cucumber were dried, the first true leaf was cut off and placed on a filter paper (70 mm in diameter) impregnated with water in a polyethylene cup (110 mm in diameter). Thirty larvae of Western flower thrips (Frankliniella occidentalis) were set free on the first true leaf, which was covered with a polyethylene cup. After seven days, the number of surviving pests was examined.

[2] = test system: cotton aphids (Aphis gossypii); test: Test Example 1: spray test on cotton aphids on cucumber plants; assay type: in vivo; conditions: 500 ppm active ingredient, sprayed 20 ml/cup on cucumber with about 20 cotton aphids; 6th day after the application
Method: A formulation of a test compound obtained in Formulation Example 5 was diluted with water so that the active ingredient concentration came to 500 ppm to prepare a test spray liquid. The seeds of cucumber were planted in polyethylene cups and grown until their first foliage leaves developed, on which about 20 cotton aphids (Aphis gossypii) were made parasitic. After one day, the test spray liquid was sprayed at the rate of 20 ml/cup onto the cucumber plants. On the 6th day after the application, the number of cotton aphids was examined and the control value was determined by the following formula: Control value (%)={1−(Cb×Tai)/(Cai×Tb)}×100 wherein the variables in the formula have the following meanings: Cb: the number of insects before the treatment in the non-treated area; Cai: the number of insects at the time of observation in the non-treated area; Tb: the number of insects before the treatment in the treated area; and Tai: the number of insects at the time of observation in the treated area.

SMILES	number of surviving pests [1]	control value [2] [%]
CC#CCOc1ncnc(N2CCCC(C)C2)c1F (stereo not shown) [Compound (26), 4-(2-butynyloxy)-5-fluoro-6-(3-methylpiperidino)pyrimidine]	0	–
CC#CCOc1ncnc(N2CCCCC2CC)c1F (stereo not shown) [Compound (33), 4-(2-butynyloxy)-6-(2-ethylpiperidino)-5-fluoropyrimidine]	0	–
CC#CCOc1ncnc(N2CCCCCCC2)c1F [Compound (46), 1-(6-(2-butynyloxy)-5-fluoropyrimidin-4-yl)octahydro-1H-azocine]	0	–
CC#CCOc1ncnc(N2CC=CCC2)c1F [Compound (53), 1-(6-(2-butynyloxy)-5-fluoropyrimidin-4-yl)-1,2,3,6-tetrahydropyridine]	0	–
CC#CCOc1nc(F)nc(N2CC(C)CC(C)C2)c1Cl (stereo not shown) [Compound (52), 5-chloro-4-(2-butynyloxy)-2-fluoro-6-(3,5-dimethylpiperidino)pyrimidine]	0	–
CC#CCOc1ncnc(N2CC(C)CC(C)C2)c1F (stereo not shown) [(51), 4-(2-butynyloxy)-5-fluoro-6-(3,5-dimethylpiperidino)pyrimidine]	0	–
CC#CCOc1ncnc(N2CC(C)CC(C)C2)c1F (stereo not shown) [Compound (4), 4-(2-butynyloxy)-5-fluoro-6-(3,5-dimethylpiperidino)pyrimidine]	0	–
CC#CCOc1cc(N2CCCC(C(F)(F)F)C2)ncn1 (stereo not shown) [Compound (24), 4-(2-butynyloxy)-6-(3-trifluoromethylpiperidino)pyrimidine]	0	–
CC#CCOc1ncnc(N2C[C@H](C)C[C@H](C)C2)c1F [Compound (29), 4-(2-butynyloxy)-5-fluoro-6-(cis-3,5-dimethylpiperidino)pyrimidine]	0	–
CC#CCOc1ncnc(N2CCCC(C)(C)C2)c1F [Compound (32), 4-(2-butynyloxy)-6-(3,3-dimethylpiperidino)-5-fluoropyrimidine]	0	–
CC#CCOc1cc(N2C[C@H](C)C[C@H](C)C2)ncn1 [Compound (23), 4-(2-butynyloxy)-6-(cis-3,5-dimethylpiperidino)pyrimidine]	0	–
COc1cc(N2CCCCC2)ncn1 [compound of the formula (A)]	–	≤ 29
CC#CCOc1cc(N2C[C@@H](C)C[C@H](C)C2)ncn1 (relative stereo) [Compound (44), 4-(2-butynyloxy)-6-(trans-3,5-dimethylpiperidino)pyrimidine]	0	–

Source: patent US7968537B2, “Pyrimidine compound and pests controlling composition containing the same” (Sumitomo Chemical Company, Limited, priority 2003, dated 2011)
